The source of these data is PMC12110804, “Molecular Characterization and Functional Analysis of Odorant-Binding Proteins in Ectropis grisescens” (International Journal of Molecular Sciences, 2025).

Entries after “also recorded” stand apart in the source; their conditions may differ. Read-outs that look alike come from different tables or passages of the source.

Test [1] concerns the target T1, EgriGOBP2 (Ectropis grisescens, UniProt A0A977IVV0). Nature of the test: Fluorescence competitive binding assay (1-NPN displacement) with recombinant EgriGOBP2. The settings on record: for binding to EgriGOBP2 (in words, displacement of 1-NPN fluorescence): non-binding ligands. The method, then:
The excitation wavelength was 337 nm, and the emission spectrum ranged from 370 to 550 nm. […] The binding curves were linearized using Scatchard plots, based on fluorescence intensity values relative to the maximum fluorescence emissions.
The dissociation constants (Ki) of each ligand were calculated with the following equation: Ki = [IC50]/(1 + [1-NPN]/K1-NPN).

The test system of test [2] is GOBP2 in Ectropis obliqua. Further details: method as in PMID 29543772. To be noted: host odors; cited from earlier work.
Test [3] concerns Frankliniella occidentalis, Frankliniella intonsa, and Thrips palmi Karny. Further details: method as in PMID 33346361. The settings on record: Y-tube olfactometer bioassays; cited from earlier work.
The target of test [4] is T1, EgriGOBP2. Nature of the test: Binding of fluorescent probe 1-NPN to recombinant EgriGOBP2 (binding curve, Scatchard plot). The settings on record: 2 µM protein in 20 mM Tris-HCl pH 7.4, 1-NPN 0–16 µM, read-out: dissociation constant (Kd) of 1-NPN. The method, then:
The binding affinities of target proteins were measured with an F-7000 fluorescence spectrophotometer (Hitachi, Tokyo, Japan) using a 1 cm light path quartz cuvette, and 1-N-phenyl-naphthylamine (1-NPN) was used as a fluorescent probe. The excitation wavelength was 337 nm, and the emission spectrum ranged from 370 to 550 nm. A total of 24 volatile compounds, including host volatiles and plant essential oil-derived volatiles, were selected for fluorescence competitive binding assays (Table 2). First, the binding affinities of 1-NPN to the target proteins were determined. The protein solutions (2 µM in 20 mM Tris-HCl, pH = 7.4) were titrated with 1-NPN to final concentrations ranging from 0 to 16 µM. The binding curves were linearized using Scatchard plots, based on fluorescence intensity values relative to the maximum fluorescence emissions. Next, each ligand (at concentrations of 0–16 µM, prepared at a 1 mM stock concentration) was added to the 2 µM EgriGOBP2/1-NPN mixture, and competitive binding curves were plotted based on the fluorescence intensity values from three replicates.
The dissociation constants (Ki) of each ligand were calculated with the following equation: Ki = [IC50]/(1 + [1-NPN]/K1-NPN). […]

Test [5] relates to RpedOBP38. Set-up: method as in PMID 39835200. To be noted: plant essential oil-derived volatiles with repellent activity; cited from earlier work.
Test [6] has as its system Sitophilus zeamais. Set-up: method as in PMID 31813390. The settings on record: cited from earlier work.
In test [7] the test system is C. pallens. Set-up: method as in PMID 25810363. The settings on record: glass Y-tube olfactometer; cited from earlier work.
In test [8] the test system is CpalOBP2. Set-up: method as in PMID 25810363. To be noted: cited from earlier work.
Test [9] relates to AgamOBP5. Further details: method as in PMID 36921814. To be noted: cited from earlier work.
Where [10] appears, read: Ki = [IC50]/(1 + [1-NPN]/K1-NPN), 2 µM EgriGOBP2/1-NPN mixture, pH 7.4, read-out: EgriGOBP2 Ki.
Where [11] appears, read: displacement of 1-NPN from 2 µM EgriGOBP2/1-NPN mixture, 20 mM Tris-HCl pH 7.4, ligand 0–16 µM, read-out: EgriGOBP2 IC50.
The mark [12] stands for this setting: EgriGOBP2 Ki (dash cells), “-”: no detectable Ki.
Setting [13] is: EgriGOBP2 Ki, Ki = [IC50]/(1 + [1-NPN]/K1-NPN), 2 µM EgriGOBP2/1-NPN mixture, pH 7.4.
Setting [14] is: cells printed as “-”: IC50 could not be calculated, read-out: EgriGOBP2 IC50 (dash cells).
Where [15] appears, read: “-”: no detectable Ki, read-out: EgriGOBP2 Ki (dash cells).

T1 sequence (A0A977IVV0 entry or part of it): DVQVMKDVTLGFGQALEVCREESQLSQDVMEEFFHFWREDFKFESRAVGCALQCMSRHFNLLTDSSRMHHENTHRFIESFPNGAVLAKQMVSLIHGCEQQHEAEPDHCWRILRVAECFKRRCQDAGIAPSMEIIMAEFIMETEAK

As to `C=CC(C)=CCC=C(C)C` [Ocimene], in test [1], the “binding affinity to EgriGOBP2 (class in words)” value (shortened to “binding affinity to EgriGOBP2”) is reported as “moderate (moderate (22 µM < Ki ≤ 40 µM))”. Also, in [1] (setting [10]), the Ki (usually a measure of affinity in units of concentration, obtained from inhibition or displacement) was determined as 18 µM. Further, in test [1] (setting [11]), the IC50 (commonly the midpoint of a concentration-inhibition curve) was 19.9 µM.

`O=Cc1ccccc1` [Benzaldehyde]: in [1], the IC50 was above 16 µM and the “binding to EgriGOBP2 (in words, displacement of 1-NPN fluorescence)” value (“binding to EgriGOBP2” for short) is “negligible binding; also recorded: did not exhibit binding affinity”. Besides, the Ki in test [1] (setting [12]) was above 14.4 µM. Besides, the “competitive binding to Ectropis obliqua GOBP2 (in words)” value in [2] was “competitively bind”.

With `CC12CCC(CC1)C(C)(C)O2` [Eucalyptol], the Ki in test [1] (setting [10]) was below 10 µM. In addition, in [1] (setting [11]), the IC50 stood at 9.36 µM. Also, the “repellent activity against three thrip species (in words)” value in test [3] is “significant repellent activity”.

Consider `c1ccc(Nc2cccc3ccccc23)cc1` [1-NPN, 1-N-phenyl-naphthylamine], for which, in test [4], the Kd (as a rule, the concentration at which binding is half-saturated) was determined as 9.28 µM.

Take `CC1=CC[C@](O)(C(C)C)CC1` [(+) -4-terpineol]: in test [5], the “binding to RpedOBP38 (in words)” value was “found to bind”.

For the molecule `CCCCCCO` [n-hexyl alcohol], the Ki in test [1] (setting [10]) is 21.2 µM. For the same molecule, the IC50 in [1] (setting [11]) was 23.5 µM.

In the case of `CC/C=C\CCOC(C)=O` [Cis-3-hexenyl acetate], in test [1] (setting [10]), the Ki amounted to 13.1 µM. In addition, in test [1] (setting [11]), the IC50 amounted to 14.5 µM.

As to `C=C(C)C1CC=C(C)C(=O)C1` (centres unmarked) [Carvone], the “repellency to Sitophilus zeamais (in words)” value in [6] is recorded as “strongly repellent”.

Regarding `C=CC(C)(O)CCC=C(C)C` (centres unmarked) [Linalool], in test [1], the IC50 was found to be 11.9 µM. Moreover, in test [1] (setting [13]), the Ki was 10.8 µM.

As to `C=C(C)[C@@H]1CC=C(C)C(=O)C1` [L(-)-carvone], the Ki in test [1] (setting [10]) was 11.6 µM. In addition, the IC50 in test [1] (setting [11]) stood at 12.9 µM. Moreover, the “binding to RpedOBP38 (in words)” value in test [5] is “found to bind”.

In the case of `C=C(C)[C@H]1CC=C(C)C(=O)C1` [(S)-(+)-carvone], in [1], the “binding affinity to EgriGOBP2” value is listed as “strong (strong (6 µM < Ki ≤ 22 µM))”. Besides, the IC50 in test [1] (setting [11]) amounted to 5.36 µM.

Take `CCCCCCCCC=O` [Nonanal]: in test [1] (setting [14]), the IC50 is above 16 µM. Moreover, the “binding to EgriGOBP2” value in test [1] is “negligible binding; also recorded: did not exhibit binding affinity”. In addition, the Ki in test [1] (setting [15]) was above 14.4 µM.

Turning to `C=CC(C)(O)CCC=C(C)CCC=C(C)C` (mixture of isomers) [Nerolidol], in test [1] (setting [10]), the Ki came to 7.93 µM. For the same molecule, the IC50 in test [1] (setting [11]) was found to be 8.79 µM.

Regarding `CC(C)=CCC/C(C)=C/CC/C(C)=C/CO` [farnesol], the “behavioral response of C. pallens (in words)” value in [7] was “significant and strong repellent behavioral responses”. Also, the “binding affinity for CpalOBP2 (in words)” value in test [8] is “strong and high binding affinities”.

As for `CC/C=C\CCOC(=O)CCCCC` [Cis-3-hexenyl caproate], the Ki in [1] (setting [10]) stood at 14 µM. The IC50 in [1] (setting [11]) is 15.5 µM.

Turning to `C=CC(O)CC` (centres unmarked) [1-penten-3-ol], the Ki in test [1] (setting [10]) amounted to 40.6 µM. In addition, the IC50 in test [1] (setting [11]) was determined as 44.8 µM.

For `CC(=O)OCc1ccccc1` [Benzyl acetate], the Ki in test [1] (setting [10]) was 13 µM. Besides, in [1] (setting [11]), the IC50 was 14.3 µM.

For the molecule `C=CCc1ccc(O)c(OC)c1` [Eugenol], the IC50 in test [1] was found to be 9.28 µM. Further, the Ki in [1] (setting [13]) was determined as 8.38 µM.

As to farnesene, the “behavioral response of C. pallens (in words)” value in test [7] was “significant and strong repellent behavioral responses”. Moreover, in test [8], the “binding affinity for CpalOBP2 (in words)” value was “strong and high binding affinities”.

As for `CC(C)=CCCC(C)=CC=O` (mixture of isomers) [Citral], the IC50 in test [1] stood at 9.12 µM. Moreover, the Ki in test [1] (setting [13]) was determined as 8.23 µM.

Take `CCC/C=C/C=O` [E-2-hexenal]: in [1], the IC50 was above 16 µM and the “binding to EgriGOBP2” value is “negligible binding; also recorded: did not exhibit binding affinity”. For the same molecule, the Ki in test [1] (setting [12]) is above 14.4 µM.

`OCc1ccccc1` [Benzyl alcohol]: the IC50 in [1] was found to be 30 µM. The Ki in [1] (setting [13]) was determined as 27 µM.

For `CCCCCCCCCC=O` [Decanal], the IC50 in test [1] (setting [14]) is above 16 µM. Further, the “binding to EgriGOBP2” value in test [1] is “negligible binding”. Further, in [1] (setting [15]), the Ki was above 14.4 µM.

As for `O=C/C=C/c1ccccc1` [Cinnamaldehyde], in test [1], the IC50 is above 16 µM and the “binding to EgriGOBP2” value is given as “did not bind”. Further, the Ki in test [1] (setting [12]) was above 14.4 µM.

For `CC(=O)OC/C=C(\C)CCC=C(C)C` [Geranyl acetate], in [1] (setting [10]), the Ki was determined as 22.3 µM. In test [1] (setting [11]), the IC50 worked out at 24.7 µM.

For the molecule `COC(=O)c1ccccc1O` [Methyl salicylate], in [1], the IC50 was 17.3 µM. Besides, in [1] (setting [13]), the Ki worked out at 15.6 µM. Further, the “competitive binding to Ectropis obliqua GOBP2 (in words)” value in [2] is listed as “competitively bind”.

For `CC/C=C\CCOC(=O)CCC` [Cis-3-hexenyl tyrate], the “binding affinity to EgriGOBP2” value in [1] was “moderate (moderate (22 µM < Ki ≤ 40 µM))”. For the same molecule, the Ki in test [1] (setting [10]) is 18.6 µM. Further, in [1] (setting [11]), the IC50 came out at 20.6 µM.

Take `Cc1ccc(C(C)C)cc1O` [Carvacrol]: in test [1], the IC50 is 23.6 µM. Besides, in test [1] (setting [13]), the Ki amounted to 21.3 µM. For the same molecule, the “binding to AgamOBP5 (in words)” value in test [9] is given as “strong binder”. Moreover, the “binding to RpedOBP38 (in words)” value in test [5] is on record as “found to bind”.

`C=CCc1ccc(OC)cc1` [4-allylanisole]: the IC50 in test [1] worked out at 8.1 µM. In addition, the Ki in [1] (setting [13]) is 7.31 µM.
